The values that follow are results of earlier work, collected in patent US6391849B1, “Method and pharmaceutical composition for disrupting lactation in a mammary gland and for treating and preventing mastitis” (Agricultural Research Organization, The Volcani Center, priority 1999, dated 2002).

For this data set, the system named is mammary gland. The note with it: EGTA introduced into the mammary gland.

As to `O=C(O)CN(CCOCCOCCN(CC(=O)O)CC(=O)O)CC(=O)O` [EGTA], the TJ integrity result was “transient loss” and the milk yield result is “transient reduction”.
